Data set [1] can be described thus: in vivo.
A short description of data set [2]: in vivo. Particulars: iv, 10 mg/kg.
For data set [3] the following is noted: background; cited from earlier work.
For data set [4] the following is noted: in vivo.

Where two headings read alike, the source gives them in different places.

Consider `O=C(O)CCCc1ccc(N(CCCl)CCCl)cc1` [chlorambucil], for which the Kp in the data set “in vivo [1]” is 0.02; in “in vivo [2]”, 0.017.
As for `N[C@@H](Cc1ccc(N(CCCl)CCCl)cc1)C(=O)O` [melphalan], the Kp in “in vivo [1]” amounted to 0.1. Also, the “entry into the brain” value in data set [3] is “only minimally enter the brain”.
Regarding `CC(C)(C)OC(=O)CCCc1ccc(N(CCCl)CCCl)cc1` [tertiary butyl chlorambucil], the Kp in the data set “in vivo [1]” and in the data set “in vivo [2]” was 0.7 each time. Also, the “increase of brain/plasma concentration ratio of active drug versus chlorambucil” value in data set [4] was 4100%.

The values above are taken from patent US4835182A (priority 1987, dated 1989).
